Measured values: the supplement of paper PMC10307832

Each cell line was assayed with CC(C)N(CCCNC(=O)Nc1ccc(C(C)(C)C)cc1)C[C@H]1O[C@@H](n2ccc3c(N)ncnc32)[C@H](O)[C@@H]1O + Cc1nc(Nc2ncc(C(=O)Nc3c(C)cccc3Cl)s2)cc(N2CCN(CCO)CC2)n1 [Dasatinib] (partner 0.075 µM) (assay: relative viability (nuclei count vs DMSO), 5 days (fraction); higher = more cells survive). Details: first compound 0.08 µM.
Procedure, shortened: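 Nuclei were stained with Hoechst during a one-step fixation (final 0.05% Triton X-100, 1% formaldehyde, 1 ug/ml Hoechst) carried out 5 days after dosing, then counted on 4× images. The cells, lung cancer lines in 1536-well plates, had been dosed by pin tool the day after seeding with one drug alone or a fixed anchor-drug dose plus five library-drug doses (not always all listed) in √10 steps. Relative viability is the nuclei count in treated wells divided by that in vehicle wells, and each value is the median of duplicate plates.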
LCLC-97TM1 gave a relative viability of 0.897.
Work on NCI-H2023 yielded a relative viability of 0.503.
Work on A-427 yielded a relative viability of 0.671.
In the case of NCI-H460, the relative viability is reported as 0.41.
NCI-H838 gave a relative viability of 0.268.
NCI-H1734 was tested, and the relative viability was 0.411.
NCI-H596 gave a relative viability of 0.603.
With NCI-H2405 the relative viability was 0.193.
Work on 201T yielded a relative viability of 0.562.
NCI-H1915 was tested, and the relative viability was 0.311.
HCC-827 was tested, and the relative viability was 0.286.
LXF-289 was tested, and the relative viability was 0.281.
With NCI-H2347 the relative viability was 0.305.
For NCI-H661, the relative viability was 0.875.
CAL-12T gave a relative viability of 0.405.
NCI-H1651 showed a relative viability of 0.317.
EPLC-272H gave a relative viability of 0.354.
In the case of NCI-H23, the relative viability is reported as 0.685.
NCI-H1355 gave a relative viability of 0.71.
Cell Line NCI-H322M has a relative viability of 0.278.
NCI-H1437 gave a relative viability of 0.359.

Same assay, conditions: first compound 0.253 µM
NCI-H3122 was tested, and the relative viability was 0.814.
HOP-62 was tested, and the relative viability was 0.615.
Cell Line LU99A has a relative viability of 0.381.
Work on BEN yielded a relative viability of 0.347.
Cell Line HARA has a relative viability of 0.282.
HCC-78 showed a relative viability of 0.311.
NCI-H441 gave a relative viability of 0.535.
For LCLC-97TM1, the relative viability was 0.783.
For NCI-H2023, the relative viability was 0.668.
A-427 was tested, and the relative viability was 0.644.
Work on NCI-H460 yielded a relative viability of 0.531.
NCI-H838 gave a relative viability of 0.262.
With NCI-H1734 the relative viability was 0.415.
NCI-H2405 gave a relative viability of 0.199.
201T showed a relative viability of 0.548.
In the case of NCI-H1915, the relative viability is reported as 0.34.
In the case of HCC-827, the relative viability is reported as 0.44.
Work on LXF-289 yielded a relative viability of 0.271.
Work on NCI-H2347 yielded a relative viability of 0.305.
For NCI-H661, the relative viability was 0.787.
CAL-12T gave a relative viability of 0.398.
NCI-H1651 showed a relative viability of 0.373.
In the case of EPLC-272H, the relative viability is reported as 0.394.
NCI-H23 showed a relative viability of 0.645.
NCI-H1355 gave a relative viability of 0.548.
In the case of NCI-H322M, the relative viability is reported as 0.266.
NCI-H1437 showed a relative viability of 0.37.

Same assay, conditions: first compound 0.8 µM
With NCI-H3122 the relative viability was 0.559.
HOP-62 was tested, and the relative viability was 0.54.
For LU99A, the relative viability was 0.679.
BEN was tested, and the relative viability was 0.312.
HARA gave a relative viability of 0.278.
HCC-78 showed a relative viability of 0.466.
LCLC-97TM1 gave a relative viability of 0.933.
In the case of NCI-H2023, the relative viability is reported as 0.602.
In the case of A-427, the relative viability is reported as 0.641.
NCI-H460 gave a relative viability of 0.453.
Work on NCI-H838 yielded a relative viability of 0.279.
With NCI-H1734 the relative viability was 0.456.
NCI-H596 gave a relative viability of 0.528.
With NCI-H2405 the relative viability was 0.242.
Work on 201T yielded a relative viability of 0.505.
For NCI-H1915, the relative viability was 0.311.
Cell Line HCC-827 has a relative viability of 0.355.
LXF-289 gave a relative viability of 0.231.
With NCI-H2347 the relative viability was 0.326.
NCI-H661 was tested, and the relative viability was 0.892.
CAL-12T was tested, and the relative viability was 0.386.
NCI-H1651 was tested, and the relative viability was 0.291.
EPLC-272H was tested, and the relative viability was 0.508.
For NCI-H23, the relative viability was 0.716.
NCI-H1355 gave a relative viability of 0.379.
NCI-H322M gave a relative viability of 0.264.
NCI-H1437 was tested, and the relative viability was 0.443.

Same assay, conditions: first compound 2.53 µM
For NCI-H3122, the relative viability was 0.786.
With HOP-62 the relative viability was 0.577.
LU99A gave a relative viability of 0.597.
In the case of BEN, the relative viability is reported as 0.314.
With HARA the relative viability was 0.22.
For HCC-78, the relative viability was 0.308.
In the case of NCI-H441, the relative viability is reported as 0.544.
Cell Line LCLC-97TM1 has a relative viability of 0.822.
Cell Line NCI-H2023 has a relative viability of 0.662.
A-427 showed a relative viability of 0.61.
Cell Line NCI-H460 has a relative viability of 0.504.
NCI-H838 showed a relative viability of 0.263.
With NCI-H1734 the relative viability was 0.485.
Cell Line NCI-H596 has a relative viability of 0.561.
In the case of NCI-H2405, the relative viability is reported as 0.2.
With 201T the relative viability was 0.565.
Work on NCI-H1915 yielded a relative viability of 0.323.
HCC-827 showed a relative viability of 0.311.
LXF-289 gave a relative viability of 0.186.
Work on NCI-H2347 yielded a relative viability of 0.296.
With NCI-H661 the relative viability was 0.885.
Cell Line CAL-12T has a relative viability of 0.453.
NCI-H1651 was tested, and the relative viability was 0.386.
Cell Line EPLC-272H has a relative viability of 0.373.
In the case of NCI-H23, the relative viability is reported as 0.798.
NCI-H1355 gave a relative viability of 0.698.
NCI-H322M was tested, and the relative viability was 0.24.
Work on NCI-H1437 yielded a relative viability of 0.337.

Same assay, conditions: first compound 8 µM
NCI-H3122 showed a relative viability of 0.739.
For HOP-62, the relative viability was 0.604.
With LU99A the relative viability was 0.479.
BEN showed a relative viability of 0.312.
For HARA, the relative viability was 0.244.
For HCC-78, the relative viability was 0.32.
NCI-H441 showed a relative viability of 0.535.
LCLC-97TM1 gave a relative viability of 0.82.
NCI-H2023 gave a relative viability of 0.55.
In the case of A-427, the relative viability is reported as 0.594.
Cell Line NCI-H460 has a relative viability of 0.456.
For NCI-H838, the relative viability was 0.31.
Cell Line NCI-H1734 has a relative viability of 0.508.
Work on NCI-H596 yielded a relative viability of 0.619.
NCI-H2405 gave a relative viability of 0.241.
With 201T the relative viability was 0.593.
NCI-H1915 gave a relative viability of 0.314.
HCC-827 was tested, and the relative viability was 0.423.
With LXF-289 the relative viability was 0.229.
For NCI-H2347, the relative viability was 0.293.
NCI-H661 gave a relative viability of 0.821.
For CAL-12T, the relative viability was 0.402.
Cell Line NCI-H1651 has a relative viability of 0.517.
With EPLC-272H the relative viability was 0.439.
NCI-H23 was tested, and the relative viability was 0.725.
With NCI-H1355 the relative viability was 0.668.
Work on NCI-H322M yielded a relative viability of 0.284.
Cell Line NCI-H1437 has a relative viability of 0.327.
